In patent US8853424B2 (Japan Science and Technology Agency, priority 2008, dated 2014):
Where two headings read alike, the source gives them in different places.

Assays:
transglutaminase (TGase) = test: Measurement of TG (TGase inhibitory activity, monodansyl cadaverine / N,N-dimethylcasein fluorescence, FDSS 3000); type: biochemical
Procedure, shortened: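 Compound (1 μL of 10 mM stock) added to 0.1 mL reaction: 100 mM HEPES-NaOH pH 7.5, 1 mM CaCl2, 20 μM monodansyl cadaverine, 0.05 mg/mL N,N-dimethylcasein, 5 μg/mL TGase. Rate of fluorescence change at 340 nm measured; DMSO control set to 100; TG50 is the concentration halving activity.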

[1] = system: SOC (store operated calcium channel); test: Measurement of SOC IC50 (thapsigargin store depletion, calcium re-addition, CHO cells); type: cell-based; details: read-out: SOC IC50
Protocol: The SOC (store operated calcium channel)-suppressive action can be measured by the method described in the Example and using, for example, FDSS 3000.
CHO cell culture medium was replaced with a BSS solution which is an extracellular fluidfree of calcium, the compound of the present invention was added 1 min later, and 1 μM thapsigargin was allowed to act thereon 2 min later to deplete intracellular calcium store. […]

[2] = system: Truncated N-terminal huntington 150 Q-EGFP-Neuron 2a cells; test: Measurement of x-Fold (polyglutamine aggregation inhibitory activity); type: cell-based
Protocol: In the present invention, the polyglutamine aggregation inhibitory activity (x-Fold) can be measured, for example, by the method described in the Example.
The number of the aggregated cells, and the total number of cells were counted by Array Scan V T1 (manufactured by Cellomics, Pittuburg, USA), and the ratio of the aggregated cells to the total number of cells was determined (x-Fold). […]

[3] = TGase activity with compound (10 mM, 1 μL in 0.1 ml enzyme reaction solution), DMSO control taken as 100
[4] = TGase inhibitory activity measurement, unit not given
[5] = CHO cells, 1 μM thapsigargin, 2 mM calcium chloride
[6] = polyglutamine aggregation inhibitory activity, Table 1
[7] = polyglutamine aggregation, Truncated N-terminal huntington 150 Q-EGFP-Neuron 2a cells
[8] = ratio of aggregated cells to total number of cells, compound 20 μM, 20 hr, almost 1 without compound, smaller = stronger inhibition
[9] = TGase inhibitory activity value, Table 1
[10] = Cricetulus griseus, CHO, CHO cells, 1 μM thapsigargin, 2 mM calcium chloride
[11] = Cricetulus griseus, CHO, Table 1

| Molecule | TGase activity remaining (% of DMSO control = 100) (transglutaminase (TGase); [3]) | TGase activity remaining (% of DMSO control = 100) (transglutaminase (TGase); [4]) | IC50 [1, 5] | IC50 ([1]; Table 1) | TGase activity remaining (% of DMSO control = 100) (transglutaminase (TGase); [9]) | IC50 [1, 10] | IC50 [1, 11] | TGase activity remaining (% of DMSO control = 100) (transglutaminase (TGase); TGase inhibitory activity value, Table 1, listed as 4143) | TGase activity remaining (% of DMSO control = 100) (transglutaminase (TGase); TGase inhibitory activity value, Table 1, listed as 7020) | x-Fold [2, 6] | x-Fold [2, 7] | x-Fold [2, 8] | x-Fold ([2]; polyglutamine aggregation inhibitory activity, Table 1, listed as 4143) | x-Fold ([2]; polyglutamine aggregation inhibitory activity, Table 1, listed as 7020) |
| --- | --- | --- | --- | --- | --- | --- | --- | --- | --- | --- | --- | --- | --- | --- |
| NCCSB(c1ccc(C(F)(F)F)cc1)c1ccc(C(F)(F)F)cc1 [Example 285, di(4-trifluoromethylphenyl) 2-aminoethylthioborane] | 51 | – | – | – | 51 | 2000 nM | 2000 nM | – | – | 0.99 | – | 0.99 | – | – |
| Cc1ccc(B(OCCN2CCNCC2)c2ccc(C)c(Cl)c2)cc1Cl [Example 72, di(3-chloro-4-methylphenyl)piperazinoethoxyborane] | 41 | – | – | – | 41 | 500 nM | 500 nM | – | – | 1.02 | – | 1.02 | – | – |
| NCCOB(c1ccccc1)c1ccc(B(OCCN)c2ccccc2)cc1 [Example 118, 1,4-bis(phenyl-2-aminoethoxyboryl)benzene] | 93 | – | – | – | 93 | 2000 nM | 2000 nM | – | – | 0.97 | – | 0.97 | – | – |
| NCCCCC(N)C(=O)OB(c1ccccc1)c1ccccc1 (centres unmarked) [Example 271, diphenyl(lysinate-O,N)borane] | 109 | – | – | – | 109 | 500 nM | 500 nM | – | – | 1.07 | – | 1.07 | – | – |
| NCCOB(c1ccc(Cl)c(F)c1)c1ccc(Cl)c(F)c1 [Example 234, di(4-chloro-3-fluoro-phenyl) 2-aminoethylborinate] | 98 | – | – | – | – | 500 nM | 500 nM | 98 | – | – | – | 1.07 | 1.07 | – |
| Cc1ccc(B(SCCN)c2ccc(C)c(Cl)c2)cc1Cl [Example 32, di(3-chloro-4-methylphenyl)-2-aminoethylthioborane] | 12 | – | – | – | 12 | 1000 nM | 1000 nM | – | – | 1.02 | – | 1.02 | – | – |
| O=C(OB(c1ccccc1)c1ccccc1)C1CCCN1 (centres unmarked) [Example 277, diphenyl(prolinate-O,N)borane] | 105 | – | – | – | 105 | 300 nM | 300 nM | – | – | 0.98 | – | 0.98 | – | – |
| Cc1ccc(B(OC(c2ccccc2)C(N)c2ccccc2)c2ccc(C)c(Cl)c2)cc1Cl (centres unmarked) [Example 225] | 109 | – | – | – | 109 | 500 nM | 500 nM | – | – | 1.03 | – | 1.03 | – | – |
| bis(4,4′-(phenylaminoethoxyboryl)phenyl)ether [Example 5] | −4 | – | 150 nM | – | −4 | – | – | – | – | 0.60 | – | 0.60 | – | – |
| NC(=O)CC(N)C(=O)OB(c1ccccc1)c1ccc(Oc2ccc(B(OC(=O)C(N)CC(N)=O)c3ccccc3)cc2)cc1 (centres unmarked) [Example 274, bis(4,4′-(phenylasparagineboryl)phenyl)ether] | 56 | – | 300 nM | – | – | – | – | – | – | – | – | 0.59 | – | – |
| diphenyl(tyrosinate-O,N)borane [Example 264] | 109 | – | 5000 nM | – | 109 | – | – | – | – | 1.00 | – | 1.00 | – | – |

Further lines, with some results ahead:

| TGase activity remaining (% of DMSO control = 100) (transglutaminase (TGase); [3]) | TGase activity remaining (% of DMSO control = 100) (transglutaminase (TGase); [4]) | IC50 [1, 5] | IC50 ([1]; Table 1) | TGase activity remaining (% of DMSO control = 100) (transglutaminase (TGase); [9]) | IC50 [1, 10] | IC50 [1, 11] | TGase activity remaining (% of DMSO control = 100) (transglutaminase (TGase); TGase inhibitory activity value, Table 1, listed as 4143) | TGase activity remaining (% of DMSO control = 100) (transglutaminase (TGase); TGase inhibitory activity value, Table 1, listed as 7020) | Molecule | x-Fold [2, 6] | x-Fold [2, 7] | x-Fold [2, 8] | x-Fold ([2]; polyglutamine aggregation inhibitory activity, Table 1, listed as 4143) | x-Fold ([2]; polyglutamine aggregation inhibitory activity, Table 1, listed as 7020) |
| --- | --- | --- | --- | --- | --- | --- | --- | --- | --- | --- | --- | --- | --- | --- |
| 43 | 43 | 400 nM | 1500 nM | – | – | – | – | – | NCC(OB(c1ccccc1)c1ccc(Oc2ccc(B(OC(CN)c3ccccc3)c3ccccc3)cc2)cc1)c1ccccc1 (centres unmarked) [Example 434, bis(4,4′-(phenyl-2-amino-1-phenylethoxyboryl)phenyl)ether] | 0.06 | 0.60 | 0.60 | – | – |
| 29 | 29 | 1500 nM | – | – | – | – | – | – | NCCCCC(N)C(=O)OB(c1ccccc1)c1ccc(COCc2ccc(B(OC(=O)C(N)CCCCN)c3ccccc3)cc2)cc1 (centres unmarked) [Example 409, bis(4,4′-(phenyl-lysineboryl)benzyl)ether] | – | 0.86 | 0.86 | – | – |
| 26 | 26 | 2000 nM | – | – | – | – | – | – | NCCCC(N)C(=O)OB(c1ccccc1)c1ccc(Oc2ccc(B(OC(=O)C(N)CCCN)c3ccccc3)cc2)cc1 (centres unmarked) [Example 435, bis(4,4′-(phenyl-ornithineboryl)phenyl)ether] | – | 0.84 | 0.84 | – | – |
| 19 | 19 | 1200 nM | – | – | – | – | – | – | NCCOB(c1ccc(COCc2ccc(B(OCCN)c3ccc(C(F)(F)F)cc3)cc2)cc1)c1ccc(C(F)(F)F)cc1 [Example 426, bis(4,4′-(p-trifluoromethylphenyl-aminoethoxyboryl)benzyl)ether] | – | 0.93 | 0.93 | – | – |
| 20 | 20 | 1400 nM | – | – | – | – | – | – | NC(=O)CCC(N)C(=O)OB(c1ccc(Oc2ccc(B(OC(=O)C(N)CCC(N)=O)c3cccc4ccccc34)cc2)cc1)c1cccc2ccccc12 (centres unmarked) [Example 444, bis(4,4′-(naphthylglutamineboryl)phenyl)ether] | – | 0.65 | 0.65 | – | – |
| 27 | – | – | – | – | 500 nM | 500 nM | – | 27 | NCCCC(N)C(=O)OB(c1ccccc1)c1ccccc1 (centres unmarked) [Example 308, diphenyl(ornithinate-O,N)borane] | – | – | 1.05 | – | 1.05 |
| 98 | – | 200 nM | – | – | – | – | – | – | Cc1ccc(B(O)c2ccc(COCc3ccc(B(O)c4ccc(C)c(Cl)c4)cc3)cc2)cc1Cl [Example 322, bis(4,4′-(3-chloro-4-methylphenylhydroxyboryl)benzyl)ether] | – | – | 0.32 | – | – |
| 60 | 60 | 250 nM | – | – | – | – | – | – | c1ccc(B(OCc2ccccn2)c2cccc(COCc3cccc(B(OCc4ccccn4)c4ccccc4)c3)c2)cc1 [Example 467, bis(3,3′-(phenyl-2-pyridylmethoxyboryl)benzyl)ether] | – | 0.98 | 0.98 | – | – |
| 130 | – | 500 nM | – | – | – | – | – | – | NC(=O)CC(N)C(=O)OB(c1ccc(COCc2ccc(B(OC(=O)C(N)CC(N)=O)c3ccc(C(F)(F)F)cc3)cc2)cc1)c1ccc(C(F)(F)F)cc1 (centres unmarked) [Example 425, bis(4,4′-(p-trifluoromethylphenyl-asparagineboryl)benzyl)ether] | – | – | 0.9 | – | – |
| 35 | 35 | 300 nM | – | – | – | – | – | – | NCC(OB(c1ccccc1)c1cccc(COCc2cccc(B(OC(CN)c3ccccc3)c3ccccc3)c2)c1)c1ccccc1 (centres unmarked) [Example 468, bis(3,3′-(phenyl-2-amino-1-phenylethoxyboryl)benzyl)ether] | – | 0.98 | 0.98 | – | – |
